Results reported in patent US20100056606A1, “Combination therapy using budesonide and antisense oligonucleotide targeted to IL4-receptor alpha” (ISIS Pharmaceuticals, Inc., priority 2005, published 2010).

Legend:
[1] = system: OVA sensitized mice; assay: Acute allergic inflammation mouse model with inhaled budesonide and/or ISIS 231894; type: in vivo
Protocol: In the mouse model of allergic inflammation, mice are sensitized and challenged with aerosolized chicken ovalbumin (OVA). Airway responsiveness is assessed by inducing airflow obstruction using a noninvasive method whereby unrestrained conscious OVA sensitized mice are placed into the main chamber of a plethysmograph (Buxco Electronics, Inc. Troy, N.Y.) and challenged with aerosolized methacholine. Pressure difference between this chamber and a reference chamber is used to extrapolate minute volume, breathing frequency and enhanced pause (Penh). Penh is a dimensionless parameter that is a function of total pulmonary airflow (i.e. the sum of the airflow in the upper and lower respiratory tracts) during the respiratory cycle of a mouse and is lower when airflow is greater.
For the acute model of allergic inflammation, mice were sensitized with 20 μg of alum-precipitated OVA was injected intraperitoneally on days 0 and 14. On days 24, 25 and 26, animals were exposed for 20 minutes to 1% OVA (in saline) by ultrasonic nebulization. On days 17, 19, 21, 24 and 26 animals were dosed with vehicle alone (saline), 1 μg/kg or 10 μg/kg of ISIS 231894 or the mismatch control oligonucleotide. Oligonucleotides or vehicle were suspended in 0.9% sodium chloride and delivered via inhalation using a nose-only aerosol delivery exposure system. A Lovelace nebulizer set at a flow rate of 1.4 liter per minute feeding into a total flow rate of 10 liters per minute was used to deliver the oligonucleotide. The exposure chamber was equilibrated with an oligonucleotide aerosol solution for 5 minutes before mice were placed in a restraint tube attached to the chamber. Restrained mice were treated for a total of 10 minutes. Analysis was performed on day 28.
The acute mouse model of allergic inflammation was used to determine if co-administration of inhaled IL-4R alpha antisense oligonucleotide would enhance the activity of inhaled budesonide, or reduce the dose required to produce anti-inflammatory activity. As described in Example 6, mice were sensitized with alum-precipitated OVA at day 0 and day 14 and nebulized with OVA in saline on days 24, 25 and 26. All mice were analyzed on day 28. Budesonide (0.3, 3, 30, and 300 μg/kg dissolved in PBS Containing 20% DMSO) was administered by nose-only aerosol exposure beginning on day 23 (24 and 20 hours before OVA exposure) and then daily through day 26, one hour prior to daily OVA exposure. The 30 μg/kg dose was also administered twice a day (bid) from day 23-26 as a separate group. As in Example 6, ISIS 231894 was administered by nose-only aerosol exposure at day 17, 19, 21, 23 and 26.
The effect of budesonide and/or ISIS 231894 treatment on AHR, BAL eosinophil infiltration and mucus accumulation (number of PAS-positive airways) were determined.

[2] = system: OVA sensitized mice; assay: Allergic rhinitis mouse model, intranasal administration; type: in vivo
Protocol: In a mouse model of allergic rhinitis, animals were sensitized intraperitoneally with alum-precipitated OVA on days 1, 5, 10 and 15. OVA diluted with saline was administered intranasally (25 μL of 500 μg OVA in each nare) daily, on days 18-22, 25-29, and 32-35. ISIS 231894 and budesonide were administered intranasally, with budesonide administration one hour before each intranasal OVA challenge. ISIS 231894 was administered on days 11, 13, 15, and one hour before each intranasal OVA challenge. Endpoints were evaluated on day 36 and included nasal mucus accumulation (nasal histopathology) nasal eosinophilia, neutrophilia (by nasal lavage analysis and microscopic eosinophil counts in epithelial tissue) and allergic symptoms (numbers of sneezes and nose-rubs observed over a fixed time period).

[3] = system: IL-4R alpha mRNA; assay: Dose-dependent reduction of IL-4R alpha mRNA in human A549 cells; type: cell-based
Excerpt: The human lung carcinoma cell line A549 was obtained from the American Type Culture Collection (Manassas, Va.). A549 cells were routinely cultured in DMEM, high glucose (Invitrogen Life Technologies, Carlsbad, Calif.) supplemented with 10% fetal bovine serum, 100 units per ml penicillin, and 100 micrograms per ml streptomycin (Invitrogen Life Technologies, Carlsbad, Calif.). Cells were routinely passaged by trypsinization and dilution when they reached approximately 90% confluence. Cells were seeded into 96-well plates (Falcon-Primaria #3872) at a density of approximately 5000 cells/well for use in oligomeric compound transfection experiments.
When cells reach appropriate confluency, they are treated with oligonucleotide using Lipofectin™ as described. When cells reached 65-75% confluency, they were treated with oligonucleotide. Oligonucleotide was mixed with LIPOFECTIN™ Invitrogen Life Technologies, Carlsbad, Calif.) in Opti-MEM™-1 reduced serum medium (Invitrogen Life Technologies, Carlsbad, Calif.) to achieve the desired concentration of oligonucleotide and a LIPOFECTIN™ concentration of 2.5 or 3 […] oligonucleotide. This transfection mixture was incubated at room temperature for approximately 0.5 hours. For cells grown in 96-well plates, wells were washed once with 100 μL OPTI-MEM™-1 and then treated with 130 μL of the transfection mixture. Cells grown in 24-well plates or other standard tissue culture plates are treated similarly, using appropriate volumes of medium and oligonucleotide. […]
Quantitation of IL-4R alpha mRNA levels was accomplished by real-time quantitative PCR using the ABI PRISM™ 7600, 7700, or 7900 Sequence Detection System (PE-Applied Biosystems, Foster City, Calif.) according to manufacturer's instructions.
In both cell types, at concentrations of 100 nM, 50 nM and 25 nM, ASOs 1-4 each caused dose-dependent reduction of target (TL-4R alpha) mRNA and protein (as measured by flow cytometry) with no significant effect on total cellular mRNA, measured 24 hours following ASO treatment.

[4] = system: MUC2 mRNA; assay: Reduction of cytokine-induced MUC2 mRNA in human cells; type: cell-based; conditions: human A549 cells (table title)
[5] = mouse, in vivo
[6] = system: OVA sensitized mice; assay: Mouse model of allergic inflammation, chronic model (Penh, BAL cells, cytokines); type: in vivo; conditions: 2.5 mg/kg intraperitoneal, day 76
Protocol: In the mouse model of allergic inflammation, mice are sensitized and challenged with aerosolized chicken ovalbumin (OVA). Airway responsiveness is assessed by inducing airflow obstruction using a noninvasive method whereby unrestrained conscious OVA sensitized mice are placed into the main chamber of a plethysmograph (Buxco Electronics, Inc. Troy, N.Y.) and challenged with aerosolized methacholine. Pressure difference between this chamber and a reference chamber is used to extrapolate minute volume, breathing frequency and enhanced pause (Penh). Penh is a dimensionless parameter that is a function of total pulmonary airflow (i.e. the sum of the airflow in the upper and lower respiratory tracts) during the respiratory cycle of a mouse and is […] when airflow is greater. This parameter closely correlates with lung resistance as measured by traditional, invasive techniques using ventilated animals (Hamelmann et al., 1997, Am. J. Respir. Crit. Care Med. 156:766-775).
In the chronic model of allergic inflammation, mice are subjected to repeated intranasal OVA administration, producing a chronic inflammatory response. In this model, mice were sensitized by intraperitoneal injection with 100 μg of OVA on days 0 and 14 as in the previous models. OVA was administered at a dose of 500 μg on days 14, 27, 28, 29, 47, 61, 73, 74 and 75. Oligonucleotide, either ISIS 231894 or the mismatch control, was administered via the nose-only aerosol delivery exposure system at a dose of either 5 μg/kg or 500 μg/kg on days 31, 38, 45, 52, 59, 66 and 73. Dexamethasone, an anti-inflammatory agent, was administered by intraperitoneal injection at 2.5 mg/kg on days 47, 62, 73, 74 and 75. Analysis of endpoints was performed on day 76, except cytokines which were evaluated on day 62, 6 hours post OVA challenge. Endpoints were similar to those in the acute and rechallenge model, and included Penh (AHR), BAL inflammatory cell accumulation and cytokines and mucus accumulation.

[7] = 30 μg/kg budesonide alone (Table 9)
[8] = Table 11, 35 μg/kg + 5% DMSO intranasal
[9] = Table 11, 35 μg/kg + 20% DMSO intranasal

In the case of `CCCC1O[C@@H]2C[C@H]3[C@@H]4CCC5=CC(=O)C=C[C@]5(C)[C@H]4[C@@H](O)C[C@]3(C)[C@]2(C(=O)CO)O1` (some centres unmarked) [budesonide], the “% Eosinophils (BAL)” value ([1]; 0.3 μg/kg inhaled (Table 8)) is reported as 41%, the “Penh (100 mg/mL methacholine)” value ([1]; 0.3 μg/kg inhaled (Table 8)) is reported as 4.75 and the “% Eosinophils (BAL)” value ([1]; 3 μg/kg inhaled (Table 8)) is reported as 32%. The “Penh (100 mg/mL methacholine)” value ([1]; 3 μg/kg inhaled (Table 8)) was 4.5, the “% Eosinophils (BAL)” value ([1]; 30 μg/kg bid inhaled) was 20% and the “Penh (100 mg/mL methacholine)” value ([1]; 30 μg/kg bid inhaled) was 3.25. For the same molecule, the “% Eosinophils (BAL)” value [1, 7] was 20%, the “PAS+ airways (mucus accumulation)” value [1, 7] was 18 and the “Penh (100 mg/mL methacholine)” value [1, 7] was 5.5. For the same molecule, the “% Eosinophils (BAL)” value ([1]; 30 μg/kg inhaled (Table 8)) was 21%, the “Penh (100 mg/mL methacholine)” value ([1]; 30 μg/kg inhaled (Table 8)) was 3.25 and the “% Eosinophils (BAL)” value ([1]; 300 μg/kg inhaled (Table 8)) was 15%. The “Penh (100 mg/mL methacholine)” value ([1]; 300 μg/kg inhaled (Table 8)) was 3.75, the minimum effective dose ([1]; inhaled) was 0.03 mg/kg and the Nasal rubs ([2]; Table 10, 3.5 μg/kg intranasal) was 5 per 5 min. For the same molecule, the Sneezes ([2]; Table 10, 3.5 μg/kg intranasal) was 6 per 5 min, the “% Nasal lavage eosinophils” value ([2]; Table 10, 35 μg/kg intranasal) was 11% and the “% Nasal lavage neutrophils” value ([2]; Table 10, 35 μg/kg intranasal) was 28%. The Nasal rubs ([2]; Table 10, 35 μg/kg intranasal) was 4.5 per 5 min, the Sneezes ([2]; Table 10, 35 μg/kg intranasal) was 2 per 5 min and the “% Nasal lavage eosinophils” value ([2]; Table 10, 350 μg/kg intranasal) was 4%. For the same molecule, the “% Nasal lavage neutrophils” value ([2]; Table 10, 350 μg/kg intranasal) was 12%, the Nasal rubs ([2]; Table 10, 350 μg/kg intranasal) was 4 per 5 min and the Sneezes ([2]; Table 10, 350 μg/kg intranasal) was 3 per 5 min. The “% Nasal lavage eosinophils” value ([2]; Table 10, 500 μg/kg intranasal) was 2%, the “% Nasal lavage neutrophils” value ([2]; Table 10, 500 μg/kg intranasal) was 6% and the Nasal rubs ([2]; Table 10, 500 μg/kg intranasal) was 2 per 5 min. For the same molecule, the Sneezes ([2]; Table 10, 500 μg/kg intranasal) was 2 per 5 min, the “% Nasal lavage eosinophils” value [2, 8] was 7% and the “% Nasal lavage neutrophils” value [2, 8] was 9%. For the same molecule, the Nasal rubs [2, 8] was 0.6 per 5 min, the Sneezes [2, 8] was 2.8 per 5 min and the Tissue eosinophils [2, 8] was 174 per mm^2. The “% Nasal lavage eosinophils” value [2, 9] was 7%, the “% Nasal lavage neutrophils” value [2, 9] was 12% and the Nasal rubs [2, 9] was 1.2 per 5 min. The Sneezes [2, 9] was 5.8 per 5 min.
In the case of “ASO3: antisense oligonucleotide targeted to human IL-4R alpha; TGGAAAGGCTTATACCCCTC; SEQ ID NO: 25 (chemistry not given here)”, the “IL-4R alpha mRNA” value ([3]; 25 nM) is reported as 45 % of untreated control, the “IL-4R alpha mRNA” value ([3]; 50 nM) is reported as 29 % of untreated control and the “IL-4R alpha mRNA” value ([3]; 100 nM) is reported as 17 % of untreated control. For the same molecule, the “MUC-2 mRNA” value ([4]; 25 nM) was 86 % of untreated control, the “MUC-2 mRNA” value ([4]; 50 nM) was 63 % of untreated control and the “MUC-2 mRNA” value ([4]; 100 nM) was 39 % of untreated control. For the same molecule, the “macrophage infiltrate in the lung, in words” value [5] was “dose-related macrophage infiltrate was observed” and the “serum chemistry markers or lung morphology (histology), in words” value ([5]; ip) was “no change”.
In the case of `C[C@@H]1C[C@H]2[C@@H]3CCC4=CC(=O)C=C[C@]4(C)[C@@]3(F)[C@@H](O)C[C@]2(C)[C@@]1(O)C(=O)CO` [dexamethasone, reference compound], the “% Eosinophils (BAL)” value [6] is reported as 25% and the “% Neutrophils (BAL)” value [6] is reported as 58%.
